Measurements reported in patent publication US8163771B2, “11 β-HSD1 modulators” (Exelixis, Inc., priority 2008, dated 2012).

These compounds were tested against T1, recombinant human 11 β-HSD1 (Homo sapiens, UniProt P28845) (assay: 11 β-HSD1 SPA Assay (Scintillation Proximity Assay)).
T1 construct: made in house; host or cells: E. coli
Assay type: biochemical
Summary of the method: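 E. coli-expressed human enzyme (30-100 nM) with tritiated cortisone 40 nM and NADPH 1 mM in HEPES buffer pH7.4, 2 hours at room temperature. Stopped with protein A SPA beads carrying anti-cortisol antibody and glycyrrhetinic acid; counted after overnight incubation. IC50 from percent inhibition between no-enzyme and no-compound signals.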

T1 sequence (P28845 whole entry): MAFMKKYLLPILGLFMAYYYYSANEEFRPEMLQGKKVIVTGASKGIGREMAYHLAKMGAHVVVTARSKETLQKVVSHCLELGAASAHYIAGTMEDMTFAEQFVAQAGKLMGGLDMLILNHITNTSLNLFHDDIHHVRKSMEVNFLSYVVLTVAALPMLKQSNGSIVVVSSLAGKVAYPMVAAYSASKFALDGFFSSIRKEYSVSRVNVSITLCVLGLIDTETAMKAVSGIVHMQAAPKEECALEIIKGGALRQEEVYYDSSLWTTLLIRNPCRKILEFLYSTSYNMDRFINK

`CC(C)(Oc1ccc(Cl)cc1Cl)C(=O)N[C@H]1C[C@H]2CC[C@@H](C1)N2c1ccc(NC(=O)NCC(F)(F)F)cc1` [Example 135, 2-[(2,4-dichlorophenyl)oxy]-2-methyl-N-{8-[4-({[(2,2,2-trifluoroethyl)amino]carbonyl}amino)phenyl]-8-azabicyclo[3.2.1]oct-3-endo-yl}propanamide] and `CC(C)(Oc1ccc(Cl)cc1Cl)C(=O)N[C@H]1C[C@H]2CC[C@@H](C1)N2c1ccc(NC(=O)NCC(F)(F)F)cc1Cl` [Example 136, N-{8-[2-chloro-4-({[(2,2,2-trifluoroethyl)amino]carbonyl}amino)phenyl]-8-azabicyclo[3.2.1]oct-3-endo-yl}-2-[(2,4-dichlorophenyl)oxy]-2-methylpropanamide] cannot be ordered by IC50: < 200 nM for the first, < 2000 nM for the second.

`CC(C)(Oc1ccc(Cl)cc1Cl)C(=O)N[C@H]1C[C@H]2CC[C@@H](C1)N2c1ccc(NC(=O)NCC(F)(F)F)cc1F` [Example 137, 2-[(2,4-dichlorophenyl)oxy]-N-{8-[2-fluoro-4-({[(2,2,2-trifluoroethyl)amino]carbonyl}amino)phenyl]-8-azabicyclo[3.2.1]oct-3-endo-yl}-2-methylpropanamide] and `CC(C)(Oc1ccc(Cl)cc1Cl)C(=O)N[C@H]1C[C@H]2CC[C@@H](C1)N2c1ccc(NC(=O)CC(F)(F)F)cc1F` [Example 139, N-{4-[3-endo-({2-[(2,4-dichlorophenyl)oxy]-2-methylpropanoyl}amino)-8-azabicyclo[3.2.1]oct-8-yl]-3-fluorophenyl}-3,3,3-trifluoropropanamide] cannot be ordered by IC50: < 200 nM for the first, < 200 nM for the second.

`CC(C)(Oc1ccc(Cl)cc1Cl)C(=O)N[C@H]1C[C@H]2CC[C@@H](C1)N2c1ccc(NC(=O)CC(F)(F)F)cc1Cl` [Example 138, N-{3-chloro-4-[3-endo-({2-[(2,4-dichlorophenyl)oxy]-2-methylpropanoyl}amino)-8-azabicyclo[3.2.1]oct-8-yl]phenyl}-3,3,3-trifluoropropanamide] and `CC(C)(Oc1ccc(Cl)cc1Cl)C(=O)N[C@H]1C[C@H]2CC[C@@H](C1)N2c1ccc(NC(=O)CC(F)(F)F)cn1` [Example 147, N-{6-[3-endo-({2-[(2,4-dichlorophenyl)oxy]-2-methylpropanoyl}amino)-8-azabicyclo[3.2.1]oct-8-yl]pyridin-3-yl}-3,3,3-trifluoropropanamide] cannot be ordered by IC50: < 2000 nM for the first, < 200 nM for the second.

`CC(C)(Oc1ccc(Cl)cc1Cl)C(=O)N[C@H]1C[C@H]2CC[C@@H](C1)N2c1ccc(S(C)(=O)=O)cn1` [Example 140, 2-[(2,4-dichlorophenyl)oxy]-2-methyl-N-{8-[5-(methylsulfonyl)pyridin-2-yl]-8-azabicyclo[3.2.1]oct-3-endo-yl}propanamide] and `CC(C)(Oc1ccc(F)cc1Cl)C(=O)N[C@H]1C[C@H]2CC[C@@H](C1)N2c1ccc(S(C)(=O)=O)cn1` [Example 155, 2-[(2-chloro-4-fluorophenyl)oxy]-2-methyl-N-{8-[5-(methylsulfonyl)pyridin-2-yl]-8-azabicyclo[3.2.1]oct-3-endo-yl}propanamide] cannot be ordered by IC50: < 200 nM for the first, < 200 nM for the second.

`NC(=O)c1ccc(N2[C@@H]3CC[C@H]2C[C@@H](NC(=O)C2(c4ccc(F)c(F)c4)CC2)C3)nc1` [Example 141, 6-[3-endo-({[1-(3,4-difluorophenyl)cyclopropyl]carbonyl}amino)-8-azabicyclo[3.2.1]oct-8-yl]pyridine-3-carboxamide] and `O=C(NC1CC1)c1ccc(N2[C@@H]3CC[C@H]2C[C@@H](NC(=O)C2(c4ccc(Cl)cc4)CC2)C3)c(F)c1` [Example 148, 4-[3-endo-({[1-(4-chlorophenyl)cyclopropyl]carbonyl}amino)-8-azabicyclo[3.2.1]oct-8-yl]-N-cyclopropyl-3-fluorobenzamide] cannot be ordered by IC50: < 200 nM for the first, < 200 nM for the second.

`CC(C)(Oc1ncc(Cl)cc1F)C(=O)N[C@H]1C[C@H]2CC[C@@H](C1)N2c1ccc(C(N)=O)cn1` [Example 142, 6-[3-endo-({2-[(5-chloro-3-fluoropyridin-2-yl)oxy]-2-methylpropanoyl}amino)-8-azabicyclo[3.2.1]oct-8-yl]pyridine-3-carboxamide] and `CC(C)(Oc1ncc(C(F)(F)F)cc1Cl)C(=O)N[C@H]1C[C@H]2CC[C@@H](C1)N2c1ccc(C(N)=O)cn1` [Example 149, 6-{3-endo-[(2-{[3-chloro-5-(trifluoromethyl)pyridin-2-yl]oxy}-2-methylpropanoyl)amino]-8-azabicyclo[3.2.1]oct-8-yl}pyridine-3-carboxamide] cannot be ordered by IC50: < 200 nM for the first, < 200 nM for the second.

`CC(C)(Oc1ccc(Cl)cc1Cl)C(=O)N[C@H]1C[C@H]2CC[C@@H](C1)N2c1cc(C(=O)NC2CC2)ccn1` [Example 143, N-cyclopropyl-2-[3-endo-({2-[(2,4-dichlorophenyl)oxy]-2-methylpropanoyl}amino)-8-azabicyclo[3.2.1]oct-8-yl]pyridine-4-carboxamide] and `CC(C)(Oc1ccc(Cl)cc1Cl)C(=O)N[C@H]1C[C@H]2CC[C@@H](C1)N2c1ccc(NC(=O)C(F)(F)F)cn1` [Example 146, 2-[(2,4-dichlorophenyl)oxy]-2-methyl-N-(8-{5-[(trifluoroacetyl)amino]pyridin-2-yl}-8-azabicyclo[3.2.1]oct-3-endo-yl)propanamide] cannot be ordered by IC50: < 2000 nM for the first, < 200 nM for the second.

`CC(C)(Oc1ccc(Cl)cc1C(F)(F)F)C(=O)N[C@H]1C[C@H]2CC[C@@H](C1)N2c1ccc(C(=O)NCC(F)(F)F)cn1` [Example 144, 6-{3-endo-[(2-{[4-chloro-2-(trifluoromethyl)phenyl]oxy}-2-methylpropanoyl)amino]-8-azabicyclo[3.2.1]oct-8-yl}-N-(2,2,2-trifluoroethyl)pyridine-3-carboxamide] and `CC(C)(Oc1ccc(F)cc1C(F)(F)F)C(=O)N[C@H]1C[C@H]2CC[C@@H](C1)N2c1ccc(C(=O)NCC(F)(F)F)cn1` [Example 145, 6-{3-endo-[(2-{[4-fluoro-2-(trifluoromethyl)phenyl]oxy}-2-methylpropanoyl)amino]-8-azabicyclo[3.2.1]oct-8-yl}-N-(2,2,2-trifluoroethyl)pyridine-3-carboxamide] cannot be ordered by IC50: < 200 nM for the first, < 200 nM for the second.

`CC(C)(Oc1ccc(C(F)(F)F)cn1)C(=O)N[C@H]1C[C@H]2CC[C@@H](C1)N2c1ccc(C(N)=O)cn1` [Example 150] and `CC(C)(Oc1ccc(C(F)(F)F)cn1)C(=O)N[C@H]1C[C@H]2CC[C@@H](C1)N2c1ccc(C(=O)NCC(F)(F)F)cn1` [Example 152, 6-{3-endo-[(2-methyl-2-{[5-(trifluoromethyl)pyridin-2-yl]oxy}propanoyl)amino]-8-azabicyclo[3.2.1]oct-8-yl}-N-(2,2,2-trifluoroethyl)pyridine-3-carboxamide] cannot be ordered by IC50: < 200 nM for the first, < 2000 nM for the second.

`CC(C)(Oc1ncc(C(F)(F)F)cc1Cl)C(=O)N[C@H]1C[C@H]2CC[C@@H](C1)N2c1ccc(C(=O)NCC(F)(F)F)cn1` [Example 151, 6-{3-endo-[(2-{[3-chloro-5-(trifluoromethyl)pyridin-2-yl]oxy}-2-methylpropanoyl)amino]-8-azabicyclo[3.2.1]oct-8-yl}-N-(2,2,2-trifluoroethyl)pyridine-3-carboxamide] and `CC(C)(Oc1ncc(Cl)cc1Cl)C(=O)N[C@H]1C[C@H]2CC[C@@H](C1)N2c1ncc(C(=O)NCC(F)(F)F)cc1F` [Example 161, 6-[3-endo-({2-[(3,5-dichloropyridin-2-yl)oxy]-2-methylpropanoyl}amino)-8-azabicyclo[3.2.1]oct-8-yl]-5-fluoro-N-(2,2,2-trifluoroethyl)pyridine-3-carboxamide] cannot be ordered by IC50: < 200 nM for the first, < 200 nM for the second.

`CC(C)(Oc1ccc(F)c(Cl)c1Cl)C(=O)N[C@H]1C[C@H]2CC[C@@H](C1)N2c1ccc(S(C)(=O)=O)cn1` [Example 153, 2-[(2,3-dichloro-4-fluorophenyl)oxy]-2-methyl-N-{8-[5-(methylsulfonyl)pyridin-2-yl]-8-azabicyclo[3.2.1]oct-3-endo-yl}propanamide] and `CC(C)(Oc1cc(Cl)c(F)cc1Cl)C(=O)N[C@H]1C[C@H]2CC[C@@H](C1)N2c1ccc(S(C)(=O)=O)cn1` [Example 154, 2-[(2,5-dichloro-4-fluorophenyl)oxy]-2-methyl-N-{8-[5-(methylsulfonyl)pyridin-2-yl]-8-azabicyclo[3.2.1]oct-3-endo-yl}propanamide] cannot be ordered by IC50: < 200 nM for the first, < 200 nM for the second.

`CC(C)(Oc1ccc(Cl)cc1Cl)C(=O)N[C@H]1C[C@H]2CC[C@@H](C1)N2c1cccc(S(C)(=O)=O)c1` [Example 156, 2-[(2,4-dichlorophenyl)oxy]-2-methyl-N-{8-[3-(methylsulfonyl)phenyl]-8-azabicyclo[3.2.1]oct-3-endo-yl}propanamide] and `CC(C)(Oc1ccc(F)cc1Cl)C(=O)N[C@H]1C[C@H]2CC[C@@H](C1)N2c1ccc(S(N)(=O)=O)cn1` [Example 158, N-{8-[5-(aminosulfonyl)pyridin-2-yl]-8-azabicyclo[3.2.1]oct-3-endo-yl}-2-[(2-chloro-4-fluorophenyl)oxy]-2-methylpropanamide] cannot be ordered by IC50: < 2000 nM for the first, < 200 nM for the second.

`CC(C)(Oc1cc(Cl)c(F)cc1Cl)C(=O)N[C@H]1C[C@H]2CC[C@@H](C1)N2c1ccc(S(N)(=O)=O)cn1` [Example 157, N-{8-[5-(aminosulfonyl)pyridin-2-yl]-8-azabicyclo[3.2.1]oct-3-endo-yl}-2-[(2,5-dichloro-4-fluorophenyl)oxy]-2-methylpropanamide] and `CC(C)(Oc1ccc(Cl)cc1Cl)C(=O)N[C@H]1C[C@H]2CC[C@@H](C1)N2c1ncc(C(=O)NCC(F)(F)F)cc1F` [Example 160, 6-[3-endo-({2-[(2,4-dichlorophenyl)oxy]-2-methylpropanoyl}amino)-8-azabicyclo[3.2.1]oct-8-yl]-5-fluoro-N-(2,2,2-trifluoroethyl)pyridine-3-carboxamide] cannot be ordered by IC50: < 200 nM for the first, < 200 nM for the second.

With `CC(C)(Oc1ccc(F)cc1Cl)C(=O)N[C@H]1C[C@H]2CC[C@@H](C1)N2c1ncc(C(=O)NCC(F)(F)F)cc1F` [Example 159, 6-[3-endo-({2-[(2-chloro-4-fluorophenyl)oxy]-2-methylpropanoyl}amino)-8-azabicyclo[3.2.1]oct-8-yl]-5-fluoro-N-(2,2,2-trifluoroethyl)pyridine-3-carboxamide] the IC50 was < 200 nM.
